Data taken from PMC6428247, “Potent inhibitors of equine steroid isomerase EcaGST A3-3” (PLoS ONE, 2019).
Where a name gives a salt, the structure may show the parent alone. Read-outs that look alike come from different tables or passages of the source.

Tests used:
EcaGST A3-3 [1] = target: T1, EcaGST A3-3 (Equus caballus, UniProt M9ZT87); experiment: Inhibition of EcaGST A3-3 activity, GSH conjugation with CDNB; assay type: biochemical, Equus ferus caballus; settings: for inhibition at 10 µM: read-out: Inhibition (%) of EcaGST A3-3; for IC50: read-out: IC50 EcaGST A3-3, substrate CDNB; for Hill coefficient, CDNB inhibition: dose-response curve, substrate CDNB, mean ± SD
T1 sequence (M9ZT87 entry or part of it): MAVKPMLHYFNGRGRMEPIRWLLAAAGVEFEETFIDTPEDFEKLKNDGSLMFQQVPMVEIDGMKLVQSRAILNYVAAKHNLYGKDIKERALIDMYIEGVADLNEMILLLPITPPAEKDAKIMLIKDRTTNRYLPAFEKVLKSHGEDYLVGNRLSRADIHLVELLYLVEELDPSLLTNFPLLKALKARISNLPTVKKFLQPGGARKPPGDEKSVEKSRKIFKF
Protocol: The final solvent concentration in the reaction system was kept at 5% (v/v) as a maximum.
(§1) The conjugation of GSH with the electrophilic substrate CDNB was used as a biochemical assay for general activity measurements. Screening of the US Drug library for inhibition was done in triplicates in 96-well plates in a Thermo Scientific Multiskan GO spectrophotometer. The conjugation activity at 30°C was monitored at 340 nm for 1 min in 0.1 M sodium phosphate buffer at pH 6.5 and 10 μM inhibitor concentration in a final volume of 300 μL. Initial concentrations of GSH and CDNB were 1 mM.
Assay conditions for inhibition measurements of enzyme activity with CDNB were the following: EcaGST A3-3 15 nM, initial concentrations of GSH and CDNB 1 mM, inhibitor concentrations varying from 0.029 μM to 15 μM, in 100 mM Na2HPO4/NaH2PO4 at pH 6.5.
The reactions were followed spectrophotometrically for 1 min at 30°C using a Shimadzu UV-2501 PC spectrophotometer (Shimadzu Inc.). All experiments included triplicate measurements in each data point.
The equation for competitive inhibition fitted by non-linear regression was v=Vmax[S]/KM(1+[I]/Ki)+[S] where [S] is the substrate concentrations and [I] is the inhibitor concentration.

HsaGST A3-3 = target: T2, HsaGST A3-3 (Homo sapiens, UniProt Q16772); experiment: Inhibition of HsaGST A3-3 CDNB activity; assay type: biochemical; settings: 1 mM GSH, 1 mM CDNB, pH 6.5, 30°C; for IC50: CDNB activity; for inhibition at 10 µM: pH 6.5, 10 μM inhibitor, read-out: Inhibition (%) of HsaGST A3-3
T2 construct: made in house
T2 sequence (Q16772 1-222): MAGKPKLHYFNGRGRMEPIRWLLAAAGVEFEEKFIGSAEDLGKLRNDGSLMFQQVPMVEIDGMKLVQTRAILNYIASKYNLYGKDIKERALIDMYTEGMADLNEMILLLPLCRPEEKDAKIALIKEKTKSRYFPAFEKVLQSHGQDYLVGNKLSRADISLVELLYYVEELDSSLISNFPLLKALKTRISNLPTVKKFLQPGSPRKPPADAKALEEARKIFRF
Protocol: (§2) EcaGST A3-3 [10], HsaGST A3-3 [12] and HsaGST M2-2 [13] were cloned, expressed and purified as described previously. Protein concentration was determined by means of the Bradford assay.
as §1
(§3) For understanding the effects of pharmacological interventions based on GST inhibitors, it is important to know the selectivity among the numerous GSTs. […] All values were determined with CDNB, which is a common substrate for all the enzymes.

HsaGST S1-1 = tested on: HsaGST S1-1; parameters: method as in PMID 25603235; settings: 1 mM GSH, 1 mM CDNB, pH 6.5, 30°C, cited from earlier work; for Inhibition (%) of HsaGST S1-1: 10 μM inhibitor; for IC50: CDNB activity
HsaGST P1-1 = tested on: HsaGST P1-1; parameters: method as in PMID 23769903; settings: 3.3 μM inhibitor, 1 mM GSH, 1 mM CDNB, pH 6.5, 30°C; cited from earlier work
HsaGST M2-2 = target: T3, HsaGST M2-2 (Homo sapiens, UniProt P28161); experiment: Inhibition of HsaGST M2-2 CDNB activity; assay type: biochemical; settings: 1 mM GSH, 1 mM CDNB, pH 6.5, 30°C; for inhibition at 10 µM: 10 μM inhibitor; for IC50: CDNB activity, read-out: IC50 HsaGST M2-2
T3 construct: made in house
T3 sequence (P28161 1-218): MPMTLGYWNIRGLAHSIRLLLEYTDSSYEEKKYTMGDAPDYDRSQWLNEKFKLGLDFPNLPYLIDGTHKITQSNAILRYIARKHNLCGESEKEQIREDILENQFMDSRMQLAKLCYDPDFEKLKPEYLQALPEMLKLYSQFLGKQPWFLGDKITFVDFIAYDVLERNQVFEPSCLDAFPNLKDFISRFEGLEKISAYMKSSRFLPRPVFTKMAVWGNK
Protocol: as §2, §1, §3

EcaGST A3-3 [2] = target: T1, EcaGST A3-3; experiment: Inhibition of EcaGST A3-3 steroid double-bond isomerase activity with Δ^5-AD; assay type: biochemical, Equus ferus caballus; settings: for Hill coefficient, Δ^5-AD inhibition: dose-response curve, substrate Δ^5-AD, mean ± SD
[3] = 10 μM inhibitor, 1 mM GSH, 1 mM CDNB, sodium phosphate pH 6.5, 30°C
[4] = 1 mM CDNB, 1 mM GSH, 100 mM sodium phosphate pH 6.5, 30°C
[5] = 0.1 mM Δ^5-AD, 1 mM GSH, 25 mM sodium phosphate pH 8.0, 30°C

Compound `CC[C@H](C)C(=O)O[C@H]1C[C@@H](C)C=C2C=C[C@H](C)[C@H](CC[C@@H]3C[C@@H](O)CC(=O)O3)[C@H]21` [Lovastatin] has an inhibition at 10 µM (EcaGST A3-3 [1]; [3]) of 33 ± 15%.
`COC(=O)Nc1nc2ccc(C(=O)c3ccccc3)cc2[nH]1` [Mebendazole] showed an inhibition at 10 µM (EcaGST A3-3 [1]; [3]) of 35 ± 15%.
Work on `CC(C)NCC(O)c1cc(O)cc(O)c1` (centres unmarked) [Metaproterenol] yielded an inhibition at 10 µM (EcaGST A3-3 [1]; [3]) of 42 ± 24%.
For `COC(=O)C1=C(C)NC(C)=C(C(=O)OCC(C)C)C1c1ccccc1[N+](=O)[O-]` (centres unmarked) [Nisoldipine], the IC50 (HsaGST A3-3) is listed as 4100 nM, the inhibition at 10 µM (HsaGST A3-3) is listed as 70% and the “Inhibition (%) of HsaGST S1-1” value (HsaGST S1-1) is listed as 42%. For the same compound, the IC50 (HsaGST S1-1) was 29000 nM, the inhibition at 10 µM (EcaGST A3-3 [1]; [3]) was 75 ± 2.3% and the “IC50 EcaGST A3-3, substrate CDNB” value (EcaGST A3-3 [1]; [4]) was “Anomalous curve”. For the same compound, the “Inhibition (%) of HsaGST P1-1” value (HsaGST P1-1) was 14%, the inhibition at 10 µM (HsaGST M2-2; read-out: Inhibition (%) of HsaGST M2-2) was 35% and the “IC50 EcaGST A3-3, substrate Δ^5-AD” value (EcaGST A3-3 [2]; [5]) was “Anomalous curve”.
`CN1CCCN=C1/C=C/c1cccc(O)c1` [Oxantel pamoate] gave an IC50 (HsaGST M2-2) of 1700 nM.
For `CCc1ccc(CCOc2ccc(CC3SC(=O)NC3=O)cc2)nc1` (centres unmarked) [Pioglitazone], the IC50 (HsaGST M2-2) was 5900 nM.
In the case of `Nc1ccc(C(=O)[O-])cc1.[K+]` [Potassium p-aminobenzoate], the “Inhibition (%) of EcaGST A3-3” value (EcaGST A3-3 [1]; [3]) is reported as 30±16%.
For `CN1CCCN=C1/C=C/c1cccs1` [Pyrantel pamoate], the IC50 (HsaGST M2-2) was 1400 nM.
For `Cc1cc(/C=C/c2ccc3cc(N(C)C)ccc3[n+]2C)c(C)n1-c1ccccc1` [Pyrvinium pamoate], the IC50 (HsaGST M2-2) was 1200 nM.
`C[n+]1cc2c3c(ccc2c2ccc4cc5c(cc4c21)OCO5)OCO3` [Sanguinarine sulfate] gave an inhibition at 10 µM (EcaGST A3-3 [1]; [3]) of 47 ± 19%.
For `O=C(O)c1cc(O)c2c(c1)[C@H]([C@H]1c3cc(C(=O)O)cc(O)c3C(=O)c3c(O[C@@H]4O[C@H](CO)[C@@H](O)[C@H](O)[C@H]4O)cccc31)c1cccc(O[C@@H]3O[C@H](CO)[C@@H](O)[C@H](O)[C@H]3O)c1C2=O` [Sennoside A], the IC50 (HsaGST A3-3) is listed as 980 nM, the inhibition at 10 µM (HsaGST A3-3) is listed as 90% and the “Inhibition (%) of HsaGST S1-1” value (HsaGST S1-1) is listed as 30%. For the same compound, the IC50 (HsaGST S1-1) was 39000 nM, the inhibition at 10 µM (EcaGST A3-3 [1]; [3]) was 100% and the IC50 (EcaGST A3-3 [1]; [4]) was 2800 ± 280 nM. For the same compound, the “Hill coefficient, CDNB inhibition” value (EcaGST A3-3 [1]) was 2.2±0.41, the “Inhibition (%) of HsaGST P1-1” value (HsaGST P1-1) was less than 4% and the inhibition at 10 µM (HsaGST M2-2; read-out: Inhibition (%) of HsaGST M2-2 (symbol)) was less than 30%. The IC50 (EcaGST A3-3 [2]) was 110 ± 8.2 nM, the “IC50 EcaGST A3-3, substrate Δ^5-AD” value (EcaGST A3-3 [2]; [5]) was “submicromolar range” and the “Hill coefficient, Δ^5-AD inhibition” value (EcaGST A3-3 [2]) was 2.1±0.29. The “Times more potent with Δ^5-AD as substrate than with CDNB” value (EcaGST A3-3 [2]; ratio of IC50 values CDNB vs Δ^5-AD, EcaGST A3-3) was “approximately 25 times”.
For `O=C(O)c1cc(/N=N/c2ccc(S(=O)(=O)Nc3ccccn3)cc2)ccc1O` [Sulfasalazine], the inhibition at 10 µM (EcaGST A3-3 [1]; [3]) was no more than 30% and the IC50 (HsaGST M2-2) was 300 nM.
In the case of `CC1=C(CC(=O)O)c2cc(F)ccc2/C1=C\c1ccc([S+](C)[O-])cc1` (centres unmarked) [Sulindac], the IC50 (HsaGST M2-2) is reported as 23000 nM.
In the case of `Cc1ccc(C(=O)Nc2ccc(S(=O)(=O)O)c3cc(S(=O)(=O)O)cc(S(=O)(=O)O)c23)cc1NC(=O)c1cccc(NC(=O)Nc2cccc(C(=O)Nc3cc(C(=O)Nc4ccc(S(=O)(=O)O)c5cc(S(=O)(=O)O)cc(S(=O)(=O)O)c45)ccc3C)c2)c1` [Suramin], the IC50 (HsaGST S1-1) is given as 300 nM, the inhibition at 10 µM (EcaGST A3-3 [1]; [3]) is given as no more than 30% and the IC50 (HsaGST M2-2) is given as 620 nM.
In the case of `O=C(OCC1OC(OC(=O)c2cc(O)c(O)c(OC(=O)c3cc(O)c(O)c(O)c3)c2)C(OC(=O)c2cc(O)c(O)c(OC(=O)c3cc(O)c(O)c(O)c3)c2)C(OC(=O)c2cc(O)c(O)c(OC(=O)c3cc(O)c(O)c(O)c3)c2)C1OC(=O)c1cc(O)c(O)c(OC(=O)c2cc(O)c(O)c(O)c2)c1)c1cc(O)c(O)c(OC(=O)c2cc(O)c(O)c(O)c2)c1` (centres unmarked) [Tannic acid], the IC50 (HsaGST A3-3) is given as 210 nM, the “Inhibition (%) of HsaGST S1-1” value (HsaGST S1-1) is given as 100% and the IC50 (HsaGST S1-1) is given as 350 nM. The IC50 (EcaGST A3-3 [1]; [4]) was 330 ± 18 nM, the “Hill coefficient, CDNB inhibition” value (EcaGST A3-3 [1]) was 2.2±0.23 and the “Inhibition (%) of HsaGST P1-1” value (HsaGST P1-1) was less than 4%. The IC50 (HsaGST M2-2) was 1200 nM, the “IC50 EcaGST A3-3, substrate Δ^5-AD” value (EcaGST A3-3 [2]; [5]) was “submicromolar range” and the “Hill coefficient, Δ^5-AD inhibition” value (EcaGST A3-3 [2]) was 2.1±0.63. It also gave an IC50 (EcaGST A3-3 [2]; read-out: IC50 EcaGST A3-3, substrate Δ^5-AD, 0.1 mM Δ^5-AD, 1 mM GSH, 25 mM sodium phosphate pH 8.0, 30°C) of 220 ± 34 nM.
